Experimental data: ChEMBL document CHEMBL4616629, “Diosmin Treats Lipopolysaccharide-Induced Inflammatory Pain and Peritonitis by Blocking NF-κB Activation in Mice” (J Nat Prod, 2020)
Calls of active or inactive are those of the source.

What was measured:
Mus musculus [1] = test: (§1) Antiinflammatory activity against Swiss mouse model of LPS-induced peritonitis assessed as decrease in leukocyte recruitment in peritoneal cavity by measuring reduction in polymorphonuclear at 30 to 100 mg/kg, po pretreated for 1 hr followed by LPS-stimulation and measured after 3 hrs by light microscopic based Neubauer chamber cell counting method; format: functional, organism-based
Mus musculus [2] = test: Antiinflammatory activity against Swiss mouse model of LPS-induced peritonitis assessed as decrease in total ROS level at 30 mg/kg, po pretreated for 1 hr followed by LPS-stimulation and measured after 3 hrs by H2DCF-DA staining based confocal microscopic method; format: functional, organism-based
Mus musculus [3] = test: Antioxidant activity in Swiss mouse model of LPS-induced inflammatory pain assessed as ABTS radical scavenging activity in hind paw skin at mg/kg, po pretreated for 1 hr followed by LPS-stimulation and measured after 3 hrs by colorimetric based assay; format: functional, organism-based
Mus musculus [4] = test: Antiinflammatory activity against Swiss mouse model of LPS-induced inflammatory pain assessed as decrease in TNFalpha level in hind paw skin at 30 mg/kg, po pretreated for 1 hr followed by LPS-stimulation and measured after 3 hrs by ELISA; format: functional, organism-based
Mus musculus [5] = test: Antiinflammatory activity against Swiss mouse model of LPS-induced peritonitis assessed as decrease in superoxide anion production in peritoneal wash at 30 mg/kg, po pretreated for 1 hr followed by LPS-stimulation and measured after 3 hrs by NBT based spectrophotometric assay; format: functional, organism-based
Mus musculus [6] = test: Antioxidant activity in Swiss mouse model of LPS-induced inflammatory pain assessed as decrease in superoxide production in hind paw skin at mg/kg, po pretreated for 1 hr followed by LPS-stimulation and measured after 3 hrs by colorimetric based NBT assay; format: functional, organism-based
Mus musculus [7] = test: Antioxidant activity in Swiss mouse model of LPS-induced inflammatory pain assessed as total ferric ion reducing activity in hind paw skin at mg/kg, po pretreated for 1 hr followed by LPS-stimulation and measured after 3 hrs by colorimetric based FRAP assay; format: functional, organism-based
[8] = biological target: Transcription factor p65 (Mus musculus) (UniProt Q04207); test: Inhibition of NFkappaB in Swiss mouse peritoneal exudates model of LPS-induced inflammatory pain assessed as reduction area of colocalization between phosphorylated NFkappaB p65 and DAPI at 30 mg/kg, po pretreated for 1 hr followed by LPS-stimulation and measured after 3 hrs by Alexa Fluor 647 staining based immunofluorescence assay; format: organism-based
Mus musculus [9] = test: Antiinflammatory activity against Swiss mouse model of LPS-induced inflammatory pain assessed as decrease in IL6 level in peritoneal cavity at 30 mg/kg, po pretreated for 1 hr followed by LPS-stimulation and measured after 3 hrs by ELISA; format: functional, organism-based
Mus musculus [10] = test: as §1, with “total leukocytes” for “polymorphonuclear”; format: functional, organism-based
Mus musculus [11] = test: Inhibition of NFkappaB in Swiss mouse peritoneal exudates model of LPS-induced inflammatory pain at 30 mg/kg, po pretreated for 1 hr followed by LPS-stimulation and measured after 3 hrs by Alexa Fluor 647 staining based immunofluorescence assay; format: organism-based
Mus musculus [12] = test: Analgesic activity in LPS-induced C57BL/6 mouse harboring LysM-eGFP assessed as decrease in neutrophil recruitment in hind paw skin by measuring fluorescence at 30 mg/kg, po pretreated for 1 hr followed by LPS-stimulation and measured after 5 hrs by confocal microscopic method; format: functional, organism-based
Mus musculus [13] = test: Antiinflammatory activity against Swiss mouse model of LPS-induced peritonitis assessed as decrease in NBT-positive leukocytes in peritoneal exudate at 30 mg/kg, po pretreated for 1 hr followed by LPS-stimulation and measured after 3 hrs by light microscopic based cell counting method; format: functional, organism-based
Mus musculus [14] = test: Analgesic activity in LPS-induced Swiss mouse assessed as decrease in neutrophil recruitment in hind paw skin by measuring MPO activity at 10 to 100 mg/kg, po pretreated for 1 hr followed by LPS-stimulation and measured after 5 hrs by colorimetric assay; format: functional, organism-based
Mus musculus [15] = test: Antiinflammatory activity against Swiss mouse model of LPS-induced inflammatory pain assessed as decrease in TNFalpha level in peritoneal cavity at 30 mg/kg, po pretreated for 1 hr followed by LPS-stimulation and measured after 3 hrs by ELISA; format: functional, organism-based
[16] = biological target: Transcription factor p65 (Mus musculus) (UniProt Q04207); test: Inhibition of NFkappaB in Swiss mouse peritoneal exudates model of LPS-induced inflammatory pain assessed as ratio of phosphorylated NFkappaB p65 at (Ser536 residue) to total NFkappaB p65 at 30 mg/kg, po pretreated for 1 hr followed by LPS-stimulation and measured after 3 hrs by ELISA; format: organism-based
Mus musculus [17] = test: Analgesic activity in Swiss mouse model of LPS-induced inflammatory pain assessed as reduction in thermal hyperalgesia at 30 to 100 mg/kg, po pretreated for 1 hr followed by LPS-stimulation and measured after 1 to 5 hrs by hot plate technique; format: functional, organism-based
Mus musculus [18] = test: Antioxidant activity in Swiss mouse model of LPS-induced inflammatory pain assessed as increase in GSH level in hind paw skin at mg/kg, po pretreated for 1 hr followed by LPS-stimulation and measured after 3 hrs by colorimetric based assay; format: functional, organism-based
Mus musculus [19] = test: Analgesic activity in Swiss mouse model of LPS-induced inflammatory pain assessed as reduction in mechanical hyperalgesia at 30 to 100 mg/kg, po pretreated for 1 hr followed by LPS-stimulation and measured after 1 to 5 hrs by Von Frey test; format: functional, organism-based
Mus musculus [20] = test: Antioxidant activity in Swiss mouse model of LPS-induced inflammatory pain assessed as reduction in lipid peroxidation in hind paw skin at mg/kg, po pretreated for 1 hr followed by LPS-stimulation and measured after 3 hrs by colorimetric based TBARS assay; format: functional, organism-based
Mus musculus [21] = test: as §1, with “mononuclear cells” for “polymorphonuclear”; format: functional, organism-based
Mus musculus [22] = test: Analgesic activity in LPS-induced Swiss mouse assessed as increase in right/left paw ratio at 30 mg/kg, po pretreated for 1 hr followed by LPS-stimulation and measured after 1 to 5 hrs by static weight bearing assay; format: functional, organism-based
Mus musculus [23] = test: Antiinflammatory activity against Swiss mouse model of LPS-induced inflammatory pain assessed as decrease in IL1beta level in peritoneal cavity at 30 mg/kg, po pretreated for 1 hr followed by LPS-stimulation and measured after 3 hrs by ELISA; format: functional, organism-based
Mus musculus [24] = test: Antiinflammatory activity against Swiss mouse model of LPS-induced inflammatory pain assessed as decrease in IL1beta level in hind paw skin at 30 mg/kg, po pretreated for 1 hr followed by LPS-stimulation and measured after 3 hrs by ELISA; format: functional, organism-based
Mus musculus [25] = test: Antiinflammatory activity against Swiss mouse model of LPS-induced inflammatory pain assessed as decrease in IL6 level in hind paw skin at 30 mg/kg, po pretreated for 1 hr followed by LPS-stimulation and measured after 3 hrs by ELISA; format: functional, organism-based

Sequence of Transcription factor p65 (Mus musculus) (Q04207 whole entry): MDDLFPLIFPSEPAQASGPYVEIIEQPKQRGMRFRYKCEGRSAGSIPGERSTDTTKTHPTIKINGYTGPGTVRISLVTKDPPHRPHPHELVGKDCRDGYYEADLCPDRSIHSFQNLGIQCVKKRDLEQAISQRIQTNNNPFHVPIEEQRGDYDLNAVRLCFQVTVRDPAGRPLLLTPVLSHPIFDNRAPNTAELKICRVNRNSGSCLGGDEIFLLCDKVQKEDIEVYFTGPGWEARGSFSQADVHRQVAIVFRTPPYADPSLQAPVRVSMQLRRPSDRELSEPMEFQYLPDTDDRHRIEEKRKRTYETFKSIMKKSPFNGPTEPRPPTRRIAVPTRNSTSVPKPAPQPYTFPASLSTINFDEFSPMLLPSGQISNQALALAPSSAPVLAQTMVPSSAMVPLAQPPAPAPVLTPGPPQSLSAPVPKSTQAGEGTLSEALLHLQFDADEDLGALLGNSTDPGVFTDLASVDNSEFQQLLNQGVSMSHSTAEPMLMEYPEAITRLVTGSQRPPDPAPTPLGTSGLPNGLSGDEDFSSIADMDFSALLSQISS

COc1ccc(-c2cc(=O)c3c(O)cc(O[C@@H]4O[C@H](CO[C@@H]5O[C@@H](C)[C@H](O)[C@@H](O)[C@H]5O)[C@@H](O)[C@H](O)[C@H]4O)cc3o2)cc1O
active: Activity (Mus musculus [1]) | Activity (Mus musculus [2]) | Activity (Mus musculus [3]) | Activity (Mus musculus [4]) | Activity (Mus musculus [5]) | Activity (Mus musculus [6]) | Activity (Mus musculus [7]) | inhibition [8] | Activity (Mus musculus [9]) | Activity (Mus musculus [10]) | inhibition (Mus musculus [11]) | Activity (Mus musculus [12]) | Activity (Mus musculus [13]) | Activity (Mus musculus [14]) | Activity (Mus musculus [15]) | inhibition [16] | Activity (Mus musculus [17]) | Activity (Mus musculus [18]) | Activity (Mus musculus [19]) | Activity (Mus musculus [20]) | Activity (Mus musculus [21]) | Activity (Mus musculus [22]) | Activity (Mus musculus [23]) | Activity (Mus musculus [24]) | Activity (Mus musculus [25])
